Drawing on ChEMBL document CHEMBL5120792, “Nyuzenamide C, an Antiangiogenic Epoxy Cinnamic Acid-Containing Bicyclic Peptide from a Riverine Streptomyces sp” (J Nat Prod, 2022), this text covers IC50 and fold change (FC) for two molecules.

One assay deals with HUVEC. Briefly: Antiangiogenic activity in HUVEC assessed as inhibition of VEGF-induced capillary tube formation incubated for 6 hrs by capillary tube formation assay. The format is functional, cell-based. The settings on record: Homo sapiens.
In another assay the test system is Hepa1c1c7. Briefly: Activation of QR in mouse Hepa1c1c7 cells assessed as increase in QR activity at 20 uM incubated for 24 hrs by NADPH-dependent menadiol-mediated reduction of MTT based assay relative to control. Type of assay: cell-based. The settings on record: filed as activator. For orientation: Tetrazolium dyes change colour on reduction, which living cells bring about.

Structures are written as SMILES.

In the case of `CC(C)C[C@H]1NC(=O)[C@@H]2CCCN2C(=O)[C@H]([C@@H](O)c2ccccc2)NC(=O)CNC(=O)[C@H](C(C)C)NC(=O)[C@H]2NC(=O)[C@@H](NC(=O)/C=C/c3ccccc3[C@H]3O[C@@H]3C)[C@@H](C)OC(=O)[C@@H](CC(N)=O)NC(=O)[C@H](NC(=O)[C@H](O)NC1=O)[C@@H](O)c1ccc(O)c(c1)Oc1ccc2cc1`, the concentration for half-maximal inhibition (IC50) (as a rule, the midpoint of a concentration-inhibition curve) in the assay on HUVEC was 8.9 µM. In the assay with Hepa1c1c7, the fold change (FC) turned out to be 1.8.
In the case of `CCN(CC)CCNC(=O)c1c(C)[nH]c(/C=C2\C(=O)Nc3ccc(F)cc32)c1C` [SUNITINIB], in the assay with HUVEC, the IC50 was found to be 2.1 µM.
